Laboratory results: patent US20250129101A1, “Compound, Pharmaceutical Composition Comprising the Same and Method for Treating Cancer Using the Same” (NATIONAL TSING HUA UNIVERSITY, priority 2023, published 2025)

Columns and labels:
KIF2C = biological target: T1, KIF2C (Homo sapiens, UniProt Q99661); experiment: In vitro validation: KIF2C kinesin activity, malachite green-based phosphate colorimetric assay; type: biochemical; conditions: concentration that inhibits 50% of KIF2C activity
T1 construct: KIF2C (216-598 a.a.); 6xHis (C); made in house; host or cells: E. coli BL21 (DE3), pET-28a
Protocol: (§1) The in vitro validation was performed by measuring KIF2C kinesin activity using malachite green-based phosphate colorimetric assay (BioVision). […] The microtubules from porcine brain tubulin (Cytoskeleton) or purified from HEK293 cells in Free-style medium (293Fs) were dissolved in the BRB80 buffer (80 mM PIPES pH 6.8, 1 mM EGTA, 1 mM MgCl2, 1 mM GTP, 1 mM DTT, and 10% DMSO) at 37° C. for 2 hr. Phosphates released from kinesin-mediated ATP hydrolysis was measured by adding 30 μL of the phosphate colorimetric reagent (BioVision), incubated for 10 min, and then measured with absorbance at 650 nm. […] The cell validation was performed by measuring cytotoxicity in MDA-MB-231 cells. The cells were cultured in a 96-well plate at a confluence of 2000 cells/well with indicates compounds for specific days. When the time was up, the culture medium in the plate was aspirated and replaced with a prepared CellTiter-Glo reagent (Promega)/DMEM mixture (1:1 mix of CellTiter-Glo reagent and serum-supplemented DMEM). After incubation for 10 min, the luminescence was measured with an ELISA plate reader to determine the cell viability.
In vitro kinesin activity was measured using malachite green-based phosphate colorimetric assay (BioVision). […] The microtubules from porcine brain tubulin (Cytoskeleton) or purified from HEK293 cells in Free-style medium (293Fs) were dissolved in the BRB80 buffer (80 mM PIPES pH 6.8, 1 mM EGTA, 1 mM MgCl2, 1 mM GTP, 1 mM DTT, and 10% DMSO) at 37° C. for 2 hr. Phosphates released from kinesin-mediated ATP hydrolysis was measured by adding 30 μL of the phosphate colorimetric reagent (BioVision), incubated for 10 min, and then measured with absorbance at 650 nm.
Constructs of sN+M regions of KIF2C (216-598 a.a.), KIF2A (181-562 a.a.) and KIF2B (171-553 a.a.) with C-terminal 6×His tag were subcloned into pET-28a vector and expressed in BL21 (DE3) E. coli cells (Novartis) cultured in Luria-Bertani medium supplemented with 50 ug/mL kanamycin at 37° C. After induction with 0.8 mM IPTG for 18 hr at 20° C., the cells were pelleted by centrifugation at 6000 rpm for 30 min at 10° C. The collected pellets were resuspended in 30 mL of buffer A (20 mM Tris-HCl pH 7.5, 500 mM NaCl, 10 mM imidazole, 1% CHAPS, and 1 mM PMSF) and next subjected to a high-pressure homogenizer (EmulsiFlex-C3) for cell lysis. After removing the cell debris by centrifugation at 13000 rpm for 30 min at 10° C., the recombinant Kinesin-13 in the supernatant was purified using nickel affinity chromatography. Firstly, the supernatant was applied to the Ni-NTA column (GE Healthcare) pre-equilibrated with buffer A. Secondly, the column was washed with 10× column volumes of buffer A to remove the unwanted proteins. The washed column was then eluted with 10× column volumes of buffer containing increasing concentrations of imidazole (40, 100, 300, 1000 mM), and the majority of the recombinant Kinesin-13 protein was eventually obtained in a fraction of 300 mM imidazole. The fractions containing the recombinant Kinesin-13 were subsequently concentrated in the buffer B (20 mM Tris-HCl pH 7.5, 10 mM imidazole, 50 mM NaCl, 2 mM DTT) using an Amicon® Ultra filter (Millipore) and subjected to cation exchange column (Capto S, GE Healthcare) for further purification. The recombinant Kinesin-13 was then eluted in elution buffer (20 mM Tris-HCl pH 7.5 and 2 mM DTT) containing 400 mM of NaCl and stored at −80° C. for long-term storage.

MDA-MB-231 cells = experiment: Cell validation: cytotoxicity in MDA-MB-231 cells (CellTiter-Glo); type: cell-based; conditions: cytotoxicity in MDA-MB-231 cells; for IC50: Homo sapiens
Protocol: as §1
The cancer cells were cultured in a 96-well plate at a confluence of 1000-2000 cells/well with indicated drugs for specific days. When the time was up, the culture medium in the plate was aspirated and replaced with a prepared CellTiter-Glo reagent/DMEM mixture (1:1 mix of CellTiter-Glo reagent and serum-supplemented DMEM). After incubation for 10 min, the luminescence (proportional to the number of living cells) was measured with an ELISA plate reader to determine the cell viability.

T1 sequence (Q99661 216-598): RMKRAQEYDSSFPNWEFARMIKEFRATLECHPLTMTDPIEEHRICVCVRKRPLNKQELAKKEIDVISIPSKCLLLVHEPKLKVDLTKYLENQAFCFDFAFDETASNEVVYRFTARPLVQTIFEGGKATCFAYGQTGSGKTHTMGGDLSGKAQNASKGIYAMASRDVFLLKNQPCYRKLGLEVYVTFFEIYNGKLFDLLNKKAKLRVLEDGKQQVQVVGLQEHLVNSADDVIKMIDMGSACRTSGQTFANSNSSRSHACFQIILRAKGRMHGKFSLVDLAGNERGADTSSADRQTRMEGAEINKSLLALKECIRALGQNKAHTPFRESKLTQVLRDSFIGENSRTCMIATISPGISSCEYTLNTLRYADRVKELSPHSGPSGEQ

| SMILES | EC50 (KIF2C) [µM] | Cell validation (IC50) (MDA-MB-231 cells) | IC50 (MDA-MB-231 cells) [µM] |
| --- | --- | --- | --- |
| COC(=O)C1=C(C)N=c2s/c(=C\c3ccc(OCC(=O)N4CCN(C)CC4)cc3)c(=O)n2C1c1ccc(Cl)cc1 (stereo not shown) [26S0 (93)] | 50 to 100 | + + | – |
| CC1=C(C(=O)CC(C)C)C(c2ccc(Cl)cc2)n2c(s/c(=C\c3ccc(OCC(=O)N4CCN(C)CC4)cc3)c2=O)=N1 (stereo not shown) [27S0 (98), (Z)-5-(4-chlorophenyl)-7-methyl-6-(3-methylbutanoyl)-2-(4-(2-(4-methylpiperazin-1-yl)-2-oxoethoxy)benzylidene)-5H-thiazolo[3,2-a]pyrimidin-3(2H)-one] | 50 to 100 | + + | – |
| CCC1=C(C(=O)OC(C)C)C(c2ccc(Cl)cc2)n2c(s/c(=C\c3ccc(OCC(=O)N4CCN(C)CC4)cc3)c2=O)=N1 (stereo not shown) [28S0 (105), isopropyl (Z)-5-(4-chlorophenyl)-7-ethyl-2-(4-(2-(4-methylpiperazin-1-yl)-2-oxoethoxy)benzylidene)-3-oxo-2,3-dihydro-5H-thiazolo[3,2-a]pyrimidine-6-carboxylate] | > 100 | – | 20 to 50 |
| C=CCOC(=O)C1=C(C)N=c2s/c(=C\c3ccc(OCC(=O)N4CCN(C)CC4)cc3)c(=O)n2C1c1ccc(Cl)cc1 (stereo not shown) [30S0 (96), allyl (Z)-5-(4-chlorophenyl)-7-methyl-2-(4-(2-(4-methylpiperazin-1-yl)-2-oxoethoxy)benzylidene)-3-oxo-2,3-dihydro-5H-thiazolo[3,2-a]pyrimidine-6-carboxylate] | > 100 | + + | – |
| CC1=C(C(=O)OC(C)C)C(c2ccc(Cl)cc2)n2c(s/c(=C\c3ccc(OCC(=O)N4CCC(O)CC4)cc3)c2=O)=N1 (stereo not shown) [31S0 (20), isopropyl (Z)-5-(4-chlorophenyl)-2-(4-(2-(4-hydroxypiperidin-1-yl)-2-oxoethoxy)benzylidene)-7-methyl-3-oxo-2,3-dihydro-5H-thiazolo[3,2-a]pyrimidine-6-carboxylate] | > 100 | – | > 50 |
| CC1=C(C(=O)OC(C)C)C(c2ccc(F)cc2)n2c(s/c(=C\c3ccc(OCC(=O)N4CCN(C)CC4)cc3)c2=O)=N1 (stereo not shown) [32S0 (36), isopropyl (Z)-5-(4-fluorophenyl)-7-methyl-2-(4-(2-(4-methylpiperazin-1-yl)-2-oxoethoxy)benzylidene)-3-oxo-2,3-dihydro-5H-thiazolo[3,2-a]pyrimidine-6-carboxylate] | > 100 | + + | – |
| CC1=C(C(=O)OC(C)C)C(c2ccc(Cl)cc2)n2c(s/c(=C\c3ccc4c(c3)OCO4)c2=O)=N1 (stereo not shown) [34S0 (24), isopropyl (Z)-2-(benzo[d][1,3]dioxol-5-ylmethylene)-5-(4-chlorophenyl)-7-methyl-3-oxo-2,3-dihydro-5H-thiazolo[3,2-a]pyrimidine-6-carboxylate] | > 100 | – | > 50 |
| CCOC(=O)C1=C(C)N=c2s/c(=C\c3ccc(OCC(=O)OC)cc3)c(=O)n2C1c1ccc(Cl)cc1 (stereo not shown) [35S0 (110), ethyl (Z)-5-(4-chlorophenyl)-2-(4-(2-methoxy-2-oxoethoxy)benzylidene)-7-methyl-3-oxo-2,3-dihydro-5H-thiazolo[3,2-a]pyrimidine-6-carboxylate] | > 100 | – | 20 to 50 |
| C#CCOc1ccc(/C=c2\sc3n(c2=O)C(c2ccc(Cl)cc2)C(C(=O)OC(C)C)=C(C)N=3)cc1 (stereo not shown) [36S0 (116), isopropyl (Z)-5-(4-chlorophenyl)-7-methyl-3-oxo-2-(4-(prop-2-yn-1-yloxy)benzylidene)-2,3-dihydro-5H-thiazolo[3,2-a]pyrimidine-6-carboxylate] | > 100 | – | > 50 |

Second part, led by results:

| EC50 (KIF2C) [µM] | SMILES | Cell validation (IC50) (MDA-MB-231 cells) | IC50 (MDA-MB-231 cells) [µM] |
| --- | --- | --- | --- |
| 50 to 100 | CC1=C(C(=O)OC(C)C)C(c2ccc(-n3ccnc3)cc2)n2c(s/c(=C\c3ccc(OCC(=O)N4CCN(C)CC4)cc3)c2=O)=N1 (stereo not shown) [21S0 (46), isopropyl (Z)-5-(4-(1H-imidazol-1-yl)phenyl)-7-methyl-2-(4-(2-(4-methylpiperazin-1-yl)-2-oxoethoxy)benzylidene)-3-oxo-2,3-dihydro-5H-thiazolo[3,2-a]pyrimidine-6-carboxylate] | + + | – |
| > 100 | CC1=C(C(=O)OC(C)C)C(c2ccc(Cl)cc2)n2c(s/c(=C\c3ccc(OCC(=O)N4CCN(C5CCCCC5)CC4)cc3)c2=O)=N1 (stereo not shown) [22S0 (17), propan-2-yl (2Z)-5-(4-chlorophenyl)-2-(4-(2-(4-cyclohexylpiperazin-1-yl)-2-oxoethoxy)benzylidene)-7-methyl-3-oxo-2,3-dihydro-5H-[1,3]thiazolo[3,2-a]pyrimidine-6-carboxylate] | – | > 50 |
| < 50 | CC1=C(C(=O)OC(C)C)C(c2ccc(Cl)cc2)n2c(s/c(=C\c3ccc(OCC(=O)N4CCC(N(C)C)CC4)cc3)c2=O)=N1 (stereo not shown) [23S0 (18), propan-2-yl (2Z)-5-(4-chlorophenyl)-2-(4-(2-(4-(dimethylamino)piperidin-1-yl)-2-oxoethoxy)benzylidene)-7-methyl-3-oxo-2,3-dihydro-5H-[1,3]thiazolo[3,2-a]pyrimidine-6-carboxylate] | + + + | – |
| < 50 | CC1=C(C(=O)OC(C)C)C(c2ccc(Cl)cc2)n2c(s/c(=C\c3ccc(OCC(=O)N4CCC(N(C)C)CC4)cc3)c2=O)=N1.O=C(O)/C=C\C(=O)O (stereo not shown) [23S9 (134), isopropyl (Z)-5-(4-chlorophenyl)-2-(4-(2-(4-(dimethylamino)piperidin-1-yl)-2-oxoethoxy)benzylidene)-7-methyl-3-oxo-2,3-dihydro-5H-thiazolo[3,2-a]pyrimidine-6-carboxylate maleate] | + + + | – |
| < 50 | CC1=C(C(=O)OC(C)C)C(c2ccc(Cl)cc2)n2c(s/c(=C\c3ccc(OCC(=O)N4CCC(N5CCN(C)CC5)CC4)cc3)c2=O)=N1 (stereo not shown) [24S0 (19), isopropyl (Z)-5-(4-chlorophenyl)-7-methyl-2-(4-(2-(4-(4-methylpiperazin-1-yl)piperidin-1-yl)-2-oxoethoxy)benzylidene)-3-oxo-2,3-dihydro-5H-thiazolo[3,2-a]pyrimidine-6-carboxylate] | + + + + | – |
| > 100 | CC1=C(C(=O)OC(C)(C)C)C(c2ccc(Cl)cc2)n2c(s/c(=C\c3ccc(OCC(=O)N4CCN(C)CC4)cc3)c2=O)=N1 (stereo not shown) [25S0 (95)] | + + | – |
| 50 to 100 | CC1=C(C(=O)OCc2ccccc2)C(c2ccc(Cl)cc2)n2c(s/c(=C\c3ccc(OCC(=O)N4CCN(C)CC4)cc3)c2=O)=N1 (stereo not shown) [29S0 (97), benzyl (Z)-5-(4-chlorophenyl)-7-methyl-2-(4-(2-(4-methylpiperazin-1-yl)-2-oxoethoxy)benzylidene)-3-oxo-2,3-dihydro-5H-thiazolo[3,2-a]pyrimidine-6-carboxylate] | + + + | – |
| < 20 | CC1=C(C(=O)OC(C)C)C(c2ccc(Cl)cc2)n2c(s/c(=C\c3ccc(OCc4nn[nH]n4)cc3)c2=O)=N1 (stereo not shown) [33S0 (115), isopropyl (Z)-2-(4-((2H-tetrazol-5-yl)methoxy)benzylidene)-5-(4-chlorophenyl)-7-methyl-3-oxo-2,3-dihydro-5H-thiazolo[3,2-a]pyrimidine-6-carboxylate] | – | > 50 |
